Measured values: ChEMBL document CHEMBL1201862, “PubChem BioAssay data set” (2004)
Active and inactive are the calls of the source.

What was measured:
[1] = target: Glyceraldehyde-3-phosphate dehydrogenase (Homo sapiens, UniProt P04406)
[2] = target: T1, Alkaline phosphatase, tissue-nonspecific isozyme (Homo sapiens, UniProt P05186); assay: potency against alkaline phosphatase TNAP – biochemical, luminescent, dose response, SAR follow-up (AID 1056)
T1 sequence (P05186 whole entry): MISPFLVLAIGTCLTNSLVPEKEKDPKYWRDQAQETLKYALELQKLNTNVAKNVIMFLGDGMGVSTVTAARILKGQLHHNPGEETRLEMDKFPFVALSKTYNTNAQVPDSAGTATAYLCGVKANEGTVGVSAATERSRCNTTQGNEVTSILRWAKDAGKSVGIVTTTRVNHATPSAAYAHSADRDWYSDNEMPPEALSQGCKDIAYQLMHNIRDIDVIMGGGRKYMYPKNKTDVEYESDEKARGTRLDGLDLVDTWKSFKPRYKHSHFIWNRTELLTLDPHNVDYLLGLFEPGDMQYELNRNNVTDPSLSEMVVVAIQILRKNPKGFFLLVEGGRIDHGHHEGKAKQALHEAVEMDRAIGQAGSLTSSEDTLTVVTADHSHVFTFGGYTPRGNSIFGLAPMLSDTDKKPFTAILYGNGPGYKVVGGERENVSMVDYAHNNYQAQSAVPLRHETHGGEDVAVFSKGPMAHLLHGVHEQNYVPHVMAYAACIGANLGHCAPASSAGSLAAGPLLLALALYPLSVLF

[3] = HEK-293T viability loss after treatment – luminescence, T-cell screen hits, cytotoxicity control for TCR NF-kB inhibitor project, dose response (AID 489026); assay type: functional, cell-based;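 further: cells exposed to compound about 14 hours before the viability readout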
[4] = loss of viability in HepG2 cells – cell-based, CellTiter-Glo, cherry-picked, cytotoxicity control for Shn3 inhibitor project, dose response (AID 624134); assay type: functional
Nonstructural protein 1 = Nonstructural protein 1 (Influenza A virus, UniProt Q194T2); assay type: functional, Influenza A virus (A/California/07/2009(H1N1))
[5] = Luminescence Cell-Based Dose Retest to Confirm Inhibitors of Cancer Stem Cells. [Related pubchem assays (depositor defined):AID2717, AID2721]; assay type: functional; settings: Homo sapiens
INS1 = assay: INS-1E survival protection against cytokine death – cell-based, luminescence, retest, dose response (AID 449756); assay type: functional; settings: Rattus norvegicus;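 further: cell death triggered by IL-1 beta plus TNF-alpha plus IFN-gamma mixture; protective hits raise ATP signal compared with cytokine alone wells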
[6] = non-specific 3'UTR reporter inhibition in Clone20-Shn3RL – cell-based, Renilla luciferase, cherry-picked, counter-screen for Shn3 inhibitor project, dose response (AID 624133); assay type: functional
[7] = reduction of Shn3 3'UTR-driven luciferase in osteoblasts – cell-based, Clone20 osteoblasts, firefly luciferase, cherry-picked, dose response (AID 624132); assay type: functional;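 further: firefly luciferase luminescence from reporter carrying the Shn3 3'UTR in osteoblasts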
[8] = target: T2, High affinity choline transporter 1 (Homo sapiens, UniProt Q9GZV3); assay: human choline transporter blockers, potency – cell-based, 5-point CRC, membrane potential dye, dose response (AID 504840); assay type: functional
T2 sequence (Q9GZV3 whole entry): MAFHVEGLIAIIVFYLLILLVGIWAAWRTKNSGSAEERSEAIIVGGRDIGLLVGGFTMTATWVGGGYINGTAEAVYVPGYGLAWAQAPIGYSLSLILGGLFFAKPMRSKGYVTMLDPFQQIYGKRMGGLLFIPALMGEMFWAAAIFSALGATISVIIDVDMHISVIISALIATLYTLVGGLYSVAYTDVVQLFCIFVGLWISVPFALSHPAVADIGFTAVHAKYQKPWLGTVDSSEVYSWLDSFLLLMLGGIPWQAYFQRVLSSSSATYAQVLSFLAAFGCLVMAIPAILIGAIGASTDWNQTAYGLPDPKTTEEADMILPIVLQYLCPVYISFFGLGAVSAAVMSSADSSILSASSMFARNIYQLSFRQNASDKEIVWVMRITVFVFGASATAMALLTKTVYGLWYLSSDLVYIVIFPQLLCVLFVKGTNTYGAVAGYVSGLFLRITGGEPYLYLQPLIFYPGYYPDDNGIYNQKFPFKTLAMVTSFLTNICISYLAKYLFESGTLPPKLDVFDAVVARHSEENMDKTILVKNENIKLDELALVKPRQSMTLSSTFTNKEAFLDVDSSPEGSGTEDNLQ

[9] = target: T3, Endoribonuclease toxin MazF (Escherichia coli K-12, UniProt P0AE70); assay: substrate-only fluorescence increase artefacts – biochemical, single-stranded RNase substrate, counter-screen for MazEF activator project, dose response (AID 588502); assay type: functional
T3 sequence (P0AE70 whole entry): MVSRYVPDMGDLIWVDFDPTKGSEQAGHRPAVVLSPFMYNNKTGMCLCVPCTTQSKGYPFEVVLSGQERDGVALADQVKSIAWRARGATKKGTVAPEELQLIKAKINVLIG

[10] = target: T4, RNA-binding protein pos-1 (Caenorhabditis elegans, UniProt G5EF15); assay: disruptors of C. elegans POS-1 RNA interaction – biochemical, fluorescence polarization, dose response (AID 1964);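 further: purified POS-1 fused to maltose binding protein made in E. coli; potency of compounds blocking POS-1 binding to fluorescent RNA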
T4 sequence (G5EF15 whole entry): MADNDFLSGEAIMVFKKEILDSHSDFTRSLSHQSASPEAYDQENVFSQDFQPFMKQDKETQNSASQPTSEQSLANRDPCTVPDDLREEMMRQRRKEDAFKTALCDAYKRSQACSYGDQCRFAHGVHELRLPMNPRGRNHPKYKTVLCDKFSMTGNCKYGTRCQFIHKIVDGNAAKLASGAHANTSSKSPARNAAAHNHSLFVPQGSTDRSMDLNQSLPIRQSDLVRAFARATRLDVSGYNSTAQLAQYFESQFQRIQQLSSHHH

[11] = target: T5, Zinc finger protein mex-5 (Caenorhabditis elegans, UniProt Q9XUB2); assay: potency of MEX-5 RNA-binding blockers – biochemical, C. elegans, fluorescence polarization, dose response (AID 1960)
T5 sequence (Q9XUB2 whole entry): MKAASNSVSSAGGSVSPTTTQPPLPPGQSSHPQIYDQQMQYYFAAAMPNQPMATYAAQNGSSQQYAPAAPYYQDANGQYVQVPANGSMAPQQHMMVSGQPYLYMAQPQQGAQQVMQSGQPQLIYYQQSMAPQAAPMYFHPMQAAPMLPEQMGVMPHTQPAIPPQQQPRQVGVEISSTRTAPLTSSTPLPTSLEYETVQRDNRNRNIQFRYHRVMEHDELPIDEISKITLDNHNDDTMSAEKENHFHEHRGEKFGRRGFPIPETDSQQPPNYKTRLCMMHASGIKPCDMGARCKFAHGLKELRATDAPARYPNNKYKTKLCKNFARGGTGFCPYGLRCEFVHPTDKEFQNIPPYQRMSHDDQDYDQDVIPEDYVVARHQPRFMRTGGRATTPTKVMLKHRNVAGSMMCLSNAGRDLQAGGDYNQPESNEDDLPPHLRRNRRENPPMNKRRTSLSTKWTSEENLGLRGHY

[12] = target: T3, Endoribonuclease toxin MazF; assay: activation of MazEF endoribonuclease cleavage – biochemical, fluorescence, single-stranded RNA substrate, uHTS hits, dose response (AID 588481); assay type: functional
[13] = HEK-293T cell viability reduction – luminescence, B-cell screen hits, cytotoxicity control for BCR NF-kB inhibitor project, dose response (AID 489021); assay type: functional, cell-based;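 further: HEK-293T cells carrying an NF-kB luciferase reporter; cells exposed to compound for about 14 hours before viability readout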
[14] = Vero E6 cell cytotoxicity, dose response, cytotoxicity control for non-replicating M. tuberculosis project, secondary assay (AID 492998); assay type: functional, VeroE6; settings: Vero C1008
[15] = THP-1 cell cytotoxicity, dose response, cytotoxicity control for non-replicating M. tuberculosis project (AID 489025); assay type: functional
BJ [16] = assay: cells; assay type: functional, cell-based; settings: Homo sapiens
[17] = DRD fibroblast viability loss – cell-based, non-viral oncogenic, luminescence, dose response (AID 1934); assay type: functional; settings: Homo sapiens
cells [18] = assay type: functional
[19] = HepG2 cell cytotoxicity, dose response, cytotoxicity control for non-replicating M. tuberculosis project (AID 489018); assay type: functional; settings: Mycobacterium tuberculosis
BJ [20] = assay: BJ-TERT fibroblast viability loss – cell-based, RAS-independent, luminescence, dose response (AID 1933); assay type: functional; settings: Homo sapiens
BJ [21] = assay: BJ-TERT-LT-ST fibroblast viability loss – cell-based, RAS-independent, luminescence, dose response (AID 1935); assay type: functional; settings: Homo sapiens;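 further: BJ fibroblasts immortalized with TERT plus LT and ST oncogenes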
Streptococcus = assay: GAS UMAA2166 growth inhibition – luminescence, BacTiterGlo, counter-screen for streptokinase expression inhibitor project, dose response (AID 1915); assay type: functional, organism-based;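 further: potency for reduction of bacterial viability or growth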
[22] = test system: Streptococcus sp. 'group A'; assay: Streptococcus pyogenes SK(-)GAS viability under kanamycin – luminescence, BacTiterGlo, confirmation, counter-screen for streptokinase expression inhibitor project, dose response (AID 1900); assay type: functional, organism-based
cells [23] = assay type: functional, cell-based
cells [24] = assay type: functional, cell-based; remark: listed apart in the source
HEK293 = assay: EBV LMP1 TES2 canonical NF-kB signalling blockers – cell-based, HEK293, luciferase, cherry-pick, dose response (AID 588343); assay type: functional; settings: Homo sapiens
Streptokinase A = target: T6, Streptokinase A (Streptococcus pyogenes serotype M1, UniProt P10520); assay: viability-normalized secreted streptokinase activity reduction – plasminogen activation absorbance, OD405, dose response (AID 1914); assay type: functional, Streptococcus pyogenes M1 GAS;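 further: secreted streptokinase activity via plasminogen activation per viability signal from cell pellet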
T6 sequence (P10520 whole entry): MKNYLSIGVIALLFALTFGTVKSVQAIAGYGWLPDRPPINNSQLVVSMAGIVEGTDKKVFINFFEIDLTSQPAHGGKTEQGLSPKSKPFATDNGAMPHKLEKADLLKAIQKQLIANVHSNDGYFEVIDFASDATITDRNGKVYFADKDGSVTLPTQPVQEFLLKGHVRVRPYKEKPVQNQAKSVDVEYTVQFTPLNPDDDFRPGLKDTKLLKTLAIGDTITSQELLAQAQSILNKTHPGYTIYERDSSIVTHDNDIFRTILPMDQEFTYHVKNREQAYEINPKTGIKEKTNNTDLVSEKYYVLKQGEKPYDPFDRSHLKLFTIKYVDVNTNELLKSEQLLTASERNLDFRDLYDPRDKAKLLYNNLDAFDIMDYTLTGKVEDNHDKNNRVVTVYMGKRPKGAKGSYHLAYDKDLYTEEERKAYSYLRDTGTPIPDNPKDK

Sequence of Glyceraldehyde-3-phosphate dehydrogenase (P04406 whole entry): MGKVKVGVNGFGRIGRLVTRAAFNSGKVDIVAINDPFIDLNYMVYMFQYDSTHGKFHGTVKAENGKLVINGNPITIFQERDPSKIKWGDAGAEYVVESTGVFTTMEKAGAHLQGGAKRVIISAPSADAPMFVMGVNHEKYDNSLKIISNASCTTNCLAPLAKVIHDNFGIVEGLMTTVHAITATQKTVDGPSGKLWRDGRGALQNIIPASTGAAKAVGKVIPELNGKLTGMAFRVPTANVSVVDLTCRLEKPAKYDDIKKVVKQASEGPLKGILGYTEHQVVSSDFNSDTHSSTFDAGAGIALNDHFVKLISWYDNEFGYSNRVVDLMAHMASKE
Sequence of Nonstructural protein 1 (Q194T2 whole entry): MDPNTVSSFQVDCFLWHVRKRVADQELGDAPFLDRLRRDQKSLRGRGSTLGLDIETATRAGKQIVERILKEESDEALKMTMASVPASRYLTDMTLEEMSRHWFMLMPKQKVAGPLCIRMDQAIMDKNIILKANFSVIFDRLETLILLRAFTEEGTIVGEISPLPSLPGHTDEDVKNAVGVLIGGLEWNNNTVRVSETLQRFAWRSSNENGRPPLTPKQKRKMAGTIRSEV

## CCOc1ccc(S(=O)(=O)Nc2nc3ccccc3nc2Cl)cc1
[1]
  IC50: > 100 µM (not active)
[2]
  IC50: > 100 µM (inactive)

## Cc1ccnc2c1ccc1c(C)ccnc12
[3]
  IC50: > 80 µM (inactive)
[4]
  AC50: > 70 µM (inactive)
Nonstructural protein 1
  IC50: 0.472 µM (active)
[5]
  AC50: 1.54 µM (active)
INS1
  AC50: 1.92 µM (active)
[6]
  AC50: > 70 µM (inactive)
[7]
  AC50: 0.857 µM (active)

## Cn1nc(C(=O)O)cc1-c1ccc(F)cc1
[1]
  IC50: > 100 µM (not active)
[2]
  IC50: > 100 µM (inactive)

## CC(C)(C)C(=O)Oc1cccc(Nc2ncnc3ccccc23)c1
[8]
  IC50: 13.8 µM (active)

## CCOc1cccc(C2C(C(=O)c3ccc(C)o3)=C(O)C(=O)N2c2nccs2)c1 (stereo not given)
[9]
  EC50: > 99 µM (inactive)
[10]
  EC50: 1.41 µM (inconclusive)
[11]
  EC50: 1.27 µM (active)
[12]
  EC50: 16.9 µM (active)

## C=CCN1C(=O)NC(=O)/C(=C(/CC)NC(C)c2ccccc2)C1=O (stereo not given)
[8]
  IC50: 1.91 µM (active)
[13]
  IC50: > 80 µM (inactive)

## Cc1n[nH]c(C)c1CCCCOc1ccccc1[N+](=O)[O-]
[8]
  IC50: 12.6 µM (active)

## Cc1cc(S(=O)(=O)c2ccc([N+](=O)[O-])cn2)ccc1Br
[14]
  CC50: 13.6 µM (active)
[15]
  CC50: 12.2 µM (active)
[4]
  AC50: 21.4 µM (active)
BJ [16]
  EC50: 17.6 µM (active)
[17]
  EC50: 6.93 µM (inconclusive)
[5]
  AC50: 1.86 µM (active)
Cells [18]
  IC50: 0.68 µM (active)
[19]
  CC50: 18 µM (active)
[6]
  AC50: 17.5 µM (active)
[7]
  AC50: 3.69 µM (active)
BJ [20]
  EC50: 3.26 µM (active)
BJ [21]
  EC50: 17 µM (active)

## CCCCOc1ccc(OCCCC)c2c1NC1(N2)C(=O)N(C(C)=O)c2ccccc21
[9]
  EC50: > 99 µM (inactive)
[12]
  EC50: > 99 µM (inactive)

## Cn1nc(C(F)(F)F)c(-c2ccccc2)c1NC(=O)c1cccnc1
[8]
  IC50: 13.2 µM (active)

## COc1ccc(S(=O)(=O)Nc2cnc3ccccc3c2)c(OC)c1
[1]
  IC50: > 100 µM (not active)
[2]
  IC50: 19.5 µM (active)

## c1ccc(CN2CCN=C2c2cccnc2)cc1
[1]
  IC50: > 100 µM (not active)
[2]
  IC50: > 100 µM (inactive)

## CCCc1cc(C(=O)N/N=C/c2ccc(CC)s2)c2ccccc2n1
[3]
  IC50: > 80 µM (inactive)

## CCCCNC(=O)/C(C#N)=c1\s/c(=C\c2ccccc2OC(F)F)c(=O)n1CCCOC
[9]
  EC50: 88.5 µM (inactive)
[12]
  EC50: > 99 µM (inactive)

## CN(C)c1ccc(/C=N/NC(=O)c2cnc3ccccc3c2)cc1
[9]
  EC50: 26.4 µM (inactive)
[12]
  EC50: > 99 µM (inactive)

## CCOc1cccc(/C=N/Nc2ccc(S(=O)(=O)N(CC)CC)cn2)c1O
Streptococcus
  EC50: 9.29 µM (active)
[22]
  EC50: 6.87 µM (active)
Cells [23]
  EC50: 49.6 µM (active)
[3]
  IC50: > 80 µM (inactive)
BJ [16]
  EC50: 4.12 µM (active)
[17]
  EC50: 3.94 µM (active)
Cells [24]
  EC50: > 350 µM (not active)
INS1
  AC50: 1.12 µM (active)
HEK293
  AC50: 4.85 µM (active)
Streptokinase A
  EC50: > 150 µM (not active)
BJ [20]
  EC50: 2.86 µM (active)
BJ [21]
  EC50: 7.7 µM (active)
